Source: US20260345584A1, “METHODS AND PHARMACEUTICAL COMPOSITIONS FOR TREATING CHEMOTHERAPY-INDUCED PERIPHERAL NEUROPATHY WITH EG5 INHIBITORS” (UNIVERSITY OF MIAMI, priority 2023, published 2026)

System: HyPer oxidation in keratinocytes
Assay: HyPer imaging of H2O2 production upon caudal fin stretch
Format: in vivo, zebrafish
Conditions: wildtype, 3 hr paclitaxel
Procedure: HyPer fluorescence was measured in the oxidized (505 nm) and unoxidized (420 nm) channels by using the region of interest (ROI) function in ZEN Black (Zeiss) whereby ROIs were selected inside highly magnified mitochondria (HyPer-mito), cytoplasm (HyPer-cyto) or the plasma membrane (HyPer-CAAX). The data was exported, and ratios determined in Excel. H2O2 measurements in zebrafish transiently injected with tp63:Hyper were manually performed by placing spot objects in Imaris 9.5.1 onto individual cells such that the spots extended to the lateral edges. Fluorescence intensities were measured inside the spots and 505 nm/420 nm ratios were subsequently calculated.
The extent of stretch that was induced in wildtype transgenic Tg(tp63:GFP-CAAX) (Lisse et al., 2016, Proceedings of the National Academy of Sciences of the United States of America 113: E2189-2198) fish in which keratinocyte plasma membranes are fluorescently labelled was characterized.
To further investigate whether paclitaxel in combination with stretch alters ROS formation, HyPer imaging was performed.

CC(=O)O[C@H]1C(=O)[C@@]2(C)[C@H]([C@H](OC(=O)c3ccccc3)[C@]3(O)C[C@H](OC(=O)[C@H](O)[C@@H](NC(=O)c4ccccc4)c4ccccc4)C(C)=C1C3(C)C)[C@]1(OC(C)=O)CO[C@@H]1C[C@@H]2O [paclitaxel]
time of peak HyPer oxidation post-stretch: 10 to 20 min
